From ChEMBL document CHEMBL1201862, “PubChem BioAssay data set” (2004)
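Where inhibition never reached the appropriate level, the endpoint shown equals the highest concentration tested. Otherwise, values were interpolated linearly from a five-concentration, 48-hour dose response in 96-well plates. GI50 is the concentration that inhibits growth by half.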 The source made the active and inactive calls. Cut-off read from the data, not from the text of the source: active = GI50 up to about 1.1 µM and inactive = higher.

Tests used:
Test in all cases: growth of human tumour cells (NCI), 48 h
786-0 = system: 786-0
A549 = system: A549
CAKI-1 = system: CAKI-1
CCRF-CEM = system: CCRF-CEM
EKVX = system: EKVX
HOP-92 = system: HOP-92
HT-29 = system: HT-29
KM12 = system: KM12
MCF7 = system: MCF7
MDA-MB-231 = system: MDA-MB-231
MDA-MB-435 = system: MDA-MB-435
MDA-N = system: MDA-N
NCI/ADR-RES = system: NCI/ADR-RES
PC-3 = system: PC-3
RXF 393 = system: RXF 393
SK-MEL-2 = system: SK-MEL-2
SN12C = system: SN12C
T47D = system: T47D
UACC-257 = system: UACC-257

Structure (SMILES) | GI50 (786-0) | GI50 (A549) | GI50 (CAKI-1) | GI50 (CCRF-CEM) | GI50 (EKVX) | GI50 (HOP-92) | GI50 (HT-29) | GI50 (KM12) | GI50 (MCF7) | GI50 (MDA-MB-231) | GI50 (MDA-MB-435) | GI50 (MDA-N) | GI50 (NCI/ADR-RES) | GI50 (PC-3) | GI50 (RXF 393) | GI50 (SK-MEL-2) | GI50 (SN12C) | GI50 (T47D) | GI50 (UACC-257)
NC(=O)C1=CC2C3C=CC2(O)C(=O)OC3O1 (stereo not given) | 3.63 µM (inactive) | 34.7 µM (inactive) | 6.07 µM (inactive) | 1.8 µM (inactive) | 3.44 µM (inactive) | 2.43 µM (inactive) | 2.92 µM (inactive) | 2.94 µM (inactive) | 3.28 µM (inactive) | 7.64 µM (inactive) | 3.27 µM (inactive) | 2.61 µM (inactive) | 2.46 µM (inactive) | 3.57 µM (inactive) | 2.52 µM (inactive) | 3.57 µM (inactive) | 4.28 µM (inactive) | 3.36 µM (inactive) | 2.58 µM (inactive)
OC1c2c(ccc3c2CCC3)CC12Cc1ccccc1C2 (stereo not given) | 17.1 µM (inactive) | 17.1 µM (inactive) | 16.7 µM (inactive) | 23.2 µM (inactive) | 16.4 µM (inactive) | 13 µM (inactive) | 17 µM (inactive) | 14.9 µM (inactive) | 18 µM (inactive) | 15.2 µM (inactive) | 15.7 µM (inactive) | 15.5 µM (inactive) | 14.3 µM (inactive) | 15.3 µM (inactive) | 13.8 µM (inactive) | 15.3 µM (inactive) | 15.3 µM (inactive) | 16.5 µM (inactive) | 14.1 µM (inactive)
Cc1ccc(S(=O)(=O)N/C(=N\O)Nc2ccc(Cl)c(Cl)c2)cc1 | 4.6 µM (inactive) | 13.3 µM (inactive) | 5.41 µM (inactive) | 2.42 µM (inactive) | 5.92 µM (inactive) | 3.05 µM (inactive) | 12.8 µM (inactive) | 11.2 µM (inactive) | 17.5 µM (inactive) | 9.98 µM (inactive) | 3.48 µM (inactive) | 3.57 µM (inactive) | 12.8 µM (inactive) | 5.48 µM (inactive) | 9.84 µM (inactive) | 10.2 µM (inactive) | 2.12 µM (inactive) | 11.4 µM (inactive) | 4.68 µM (inactive)
CC(C)(C)c1ccc(-c2nc3ccc([N+](=O)[O-])cc3c(=O)o2)cc1 | 26.8 µM (inactive) | 28.9 µM (inactive) | 50.4 µM (inactive) | 20.1 µM (inactive) | 25.4 µM (inactive) | 15.6 µM (inactive) | 24.7 µM (inactive) | 20 µM (inactive) | 34.1 µM (inactive) | 27.5 µM (inactive) | 25.1 µM (inactive) | 31.6 µM (inactive) | 25.4 µM (inactive) | 21.2 µM (inactive) | 42.6 µM (inactive) | 20.7 µM (inactive) | 40.1 µM (inactive) | 40.5 µM (inactive) | 29.6 µM (inactive)
c1ccc(-c2c[nH]c(SC(c3ccccc3)c3ccccc3)n2)cc1 | 32.1 µM (inactive) | 21.9 µM (inactive) | 13.8 µM (inactive) | 19.3 µM (inactive) | 13.3 µM (inactive) | 9.51 µM (inactive) | 10.9 µM (inactive) | 16.8 µM (inactive) | 20.3 µM (inactive) | 58.6 µM (inactive) | 21.1 µM (inactive) | 20.7 µM (inactive) | 11.1 µM (inactive) | 22.1 µM (inactive) | 15.8 µM (inactive) | 16.9 µM (inactive) | 17.4 µM (inactive) | 8.95 µM (inactive) | 18 µM (inactive)
O=c1[nH]c2ccc(CC(=S)N3CCN(c4ccccc4)CC3)cc2o1 | > 90.2 µM (inactive) | 85.3 µM (inactive) | 97.9 µM (inactive) | 71.3 µM (inactive) | 37.9 µM (inactive) | 84.9 µM (inactive) | > 100 µM (inactive) | 63.4 µM (inactive) | > 100 µM (inactive) | > 100 µM (inactive) | 54.5 µM (inactive) | > 49.9 µM (inactive) | > 44.5 µM (inactive) | > 100 µM (inactive) | > 100 µM (inactive) | > 100 µM (inactive) | > 100 µM (inactive) | > 100 µM (inactive) | > 100 µM (inactive)
CCCCc1ccc(Nc2nc3c(ncn3C3CC(O)C(CN=[N+]=[N-])O3)c(=O)[nH]2)cc1 (stereo not given) | > 100 µM (inactive) | > 100 µM (inactive) | > 100 µM (inactive) | > 100 µM (inactive) | > 100 µM (inactive) | > 100 µM (inactive) | > 100 µM (inactive) | > 100 µM (inactive) | > 100 µM (inactive) | > 100 µM (inactive) | > 100 µM (inactive) | > 100 µM (inactive) | > 100 µM (inactive) | > 100 µM (inactive) | > 100 µM (inactive) | > 100 µM (inactive) | > 100 µM (inactive) | 54.7 µM (inactive) | > 100 µM (inactive)
O=C(CC1C=Cc2ccccc2N1C(=O)c1ccccc1)c1ccccc1 (stereo not given) | 29.3 µM (inactive) | 22.5 µM (inactive) | 34.2 µM (inactive) | 36.1 µM (inactive) | 12.6 µM (inactive) | 24 µM (inactive) | 17.1 µM (inactive) | 19.3 µM (inactive) | 29.1 µM (inactive) | 21.9 µM (inactive) | 20.4 µM (inactive) | 16.1 µM (inactive) | 25.8 µM (inactive) | 26.5 µM (inactive) | 47.2 µM (inactive) | 17.3 µM (inactive) | 27 µM (inactive) | 44.2 µM (inactive) | 20.5 µM (inactive)
O=S(=O)(/N=C(\NO)Nc1ccc(Cl)cc1)C1CC=C(c2ccon2)S1 (stereo not given) | 2.88 µM (inactive) | 32.1 µM (inactive) | 2.39 µM (inactive) | 12.2 µM (inactive) | 31 µM (inactive) | 10.3 µM (inactive) | 42.7 µM (inactive) | 46.5 µM (inactive) | 16.1 µM (inactive) | 18.4 µM (inactive) | 8.91 µM (inactive) | 6.04 µM (inactive) | 22.1 µM (inactive) | 14.8 µM (inactive) | 6.31 µM (inactive) | 13.3 µM (inactive) | 18.2 µM (inactive) | 12.5 µM (inactive) | 12.5 µM (inactive)
C=Cc1nc2c(Cl)ncnc2n1Cc1ccccc1 | 1.6 µM (inactive) | 11.2 µM (inactive) | 1.91 µM (inactive) | 2.74 µM (inactive) | 4.7 µM (inactive) | 2.07 µM (inactive) | 2.62 µM (inactive) | 2.84 µM (inactive) | 1.55 µM (inactive) | 5.74 µM (inactive) | 2.65 µM (inactive) | 3.12 µM (inactive) | 3.7 µM (inactive) | 3.52 µM (inactive) | 2.69 µM (inactive) | 12.1 µM (inactive) | 6.43 µM (inactive) | 2.59 µM (inactive) | 2.59 µM (inactive)
COc1cc(CNc2c3ccccc3nc3ccccc23)cc(OC)c1OC | 2.6 µM (inactive) | 3.32 µM (inactive) | 2.74 µM (inactive) | 1.57 µM (inactive) | 5.78 µM (inactive) | 3.58 µM (inactive) | 2.49 µM (inactive) | 6.21 µM (inactive) | 5.48 µM (inactive) | 5.42 µM (inactive) | 3.5 µM (inactive) | 2.76 µM (inactive) | 4.16 µM (inactive) | 3.23 µM (inactive) | 2.86 µM (inactive) | 2.23 µM (inactive) | 2.88 µM (inactive) | 6.38 µM (inactive) | 3.11 µM (inactive)
COc1cc2cc(C(=O)N3CC(CCl)c4c3cc(N)c3ccccc43)[nH]c2cc1OCCN(C)C (stereo not given) | < 0.005 µM (active) | < 0.005 µM (active) | < 0.005 µM (active) | < 0.005 µM (active) | 0.00809 µM (active) | < 0.005 µM (active) | 0.5 µM (active) | < 0.005 µM (active) | < 0.005 µM (active) | < 0.005 µM (active) | < 0.005 µM (active) | < 0.005 µM (active) | 0.00931 µM (active) | < 0.005 µM (active) | < 0.005 µM (active) | < 0.005 µM (active) | 0.00597 µM (active) | < 0.005 µM (active) | 0.00993 µM (active)
C=C(C)C(CC=C(C)C)Cc1c(O)cc(OC)c2c1OC(c1ccc(O)cc1O)C(O)C2=O (stereo not given) | 16.6 µM (inactive) | 19.5 µM (inactive) | 13.6 µM (inactive) | 50.8 µM (inactive) | 16.3 µM (inactive) | 14.6 µM (inactive) | 20.7 µM (inactive) | 12 µM (inactive) | 13.2 µM (inactive) | 18.6 µM (inactive) | 16.9 µM (inactive) | 14.9 µM (inactive) | 22.9 µM (inactive) | 13.5 µM (inactive) | 19 µM (inactive) | 19.5 µM (inactive) | 20.5 µM (inactive) | 13.8 µM (inactive) | 17.7 µM (inactive)
CCOC(=O)C1=CNC(C(=O)OCC)C1c1cccn1-c1ccc(Cl)cc1[N+](=O)[O-] (stereo not given) | 19.1 µM (inactive) | 32.1 µM (inactive) | 20 µM (inactive) | 24.5 µM (inactive) | 17.9 µM (inactive) | 17.6 µM (inactive) | 16.1 µM (inactive) | 20.2 µM (inactive) | 20.6 µM (inactive) | 10 µM (inactive) | 21.5 µM (inactive) | 22 µM (inactive) | 18.5 µM (inactive) | 20.7 µM (inactive) | 14.6 µM (inactive) | 15.4 µM (inactive) | 18.2 µM (inactive) | 24.2 µM (inactive) | 24.4 µM (inactive)
CCC(=O)C(CCN1CCC2(CCCc3ccccc32)CC1)(c1ccccc1)c1ccccc1 | 2.12 µM (inactive) | 3.63 µM (inactive) | 3.44 µM (inactive) | 1.78 µM (inactive) | 4 µM (inactive) | 1.47 µM (inactive) | 0.993 µM (active) | 1.79 µM (inactive) | 2.86 µM (inactive) | 2.51 µM (inactive) | 3.49 µM (inactive) | 3.96 µM (inactive) | 3.19 µM (inactive) | 2.45 µM (inactive) | 2 µM (inactive) | 2 µM (inactive) | 2.29 µM (inactive) | 3.29 µM (inactive) | 2.05 µM (inactive)
